{"source": "patent US20240189233A1", "about": "“POWDERY PREPARATION AND METHOD FOR MANUFACTURING SAME” (ICHIMARU PHARCOS CO., LTD., priority 2021, published 2024)", "origin": "cited, not measured here", "tested_on": "human breast cancer cells", "details": "Cheng W L et al. (2011)", "data": [{"compound": "C=C[C@H](O)C#CC#C[C@H](O)/C=C\\CC/C=C\\C", "note": "[araliadiol]", "values": [{"measurement": "growth inhibitory activity", "value": "growth inhibitory activity"}]}]}
